Source: patent US20240148676A1, “COMBINATION THERAPY WITH PD-1 SIGNAL INHIBITOR” (Kyoto University, priority 2021, published 2024)

Experiments:
LLC cells = assay: LLC tumor growth in WT mice, anti-PD-L1 antibody and/or CD45 inhibitor; type: in vivo, mouse; details: young WT mice; for tumor growth: CD45 inhibitor (3 mg/kg i.p., from day 7, three times) in combination with anti-PD-L1 antibody (2 mg/kg, days 7, 13, 19), LLC 2×10^6; for inhibitory effect against LLC tumor growth: CD45 inhibitor alone
Method: (§1) CD45 inhibition (FIG. 12): 2-(4-acetylanilino)-3-chloronaphthoquinone (211) (530197, EDM Millipore) (12) (3 mg/kg) or N-(9,10-dioxo-9,10-dihydrophenanthren-2-yl)-2,2-dimethylpropionamide (PTP) (540215, Sigma-Aldrich) (13) (3 mg/kg) was administered intraperitoneally to mice before tumor cell inoculation or 5 or 7 days after tumor cell inoculation. MC38 cells (5×10^5 or 1×10^6) or LLC cells (2×10^6) were intradermally inoculated into the right flank of mice (day 0). Seven days after LLC cell inoculation (day 7), mice received intraperitoneal administration of anti-PD-L1 antibody (clone 1-111A.4) (2 mg/kg). Administration of this anti-PD-L1 antibody was repeated 3 times at an interval of 6 days (on days 7, 13, and 19). Tumor size was measured with calipers, and tumor volume was calculated using the following formula: π (length×breadth×height)/6.
LLC cells (2×10^6 cells/tumor) were i.d. inoculated into the right flank of young (1 to 2-month old) WT mice (FIG. 16A). After 7 days, therapy was started using anti-PD-L1 antibody alone or in combination with CD45 inhibitor (211 or PTP) to examine tumor growth (FIG. 16A). […] Further, a therapeutic effect of using CD45 inhibitor alone was examined under similar conditions.

[1] = system: MC38 murine colon adenocarcinoma cells; assay: MC38 tumor growth in PD-1 KO mice given CD45 inhibitor; type: in vivo, mouse; details: for tumor volume: PD-1 KO mice (2-month old), vs vehicle
Method: as §1
CD45 inhibitor (211) was administered intraperitoneally at 3 mg/kg to PD-1 KO mice (2-month old) once 3 days before inoculation of MC38 murine colon adenocarcinoma cells (preadministration) or 3 times 5 days after inoculation of MC38 cells (postadministration) (FIG. 13A and B). MC38 cells were intradermally inoculated into the right flank of miceat 1×10^6 cells/tumor.
CD45 inhibitor (211) was administered intraperitoneally at 3 mg/kg to young (1 to 2-month old) or aged (14 to 16-month old) PD-1 KO mice […]. Three days after administration of 211, MC38 cells were intradermally inoculated into the right flank of mice at 5×10^5 cells/tumor, followed by monitoring tumor growth.

| Compound | tumor growth (LLC cells) | inhibitory effect against LLC tumor growth (LLC cells) | tumor growth ([1]; aged (14 to 16-month old) PD-1 KO mice, 3 mg/kg i.p. 3 days before MC38 (5×10^5) inoculation) | tumor volume ([1]; postadministration: 3 mg/kg i.p. 3 times from day 5 after MC38 (1×10^6) inoculation) | tumor volume ([1]; preadministration: 3 mg/kg i.p. once 3 days before MC38 (1×10^6) inoculation) |
| --- | --- | --- | --- | --- | --- |
| CC(C)(C)C(=O)Nc1ccc2c(c1)C(=O)C(=O)c1ccccc1-2 [PTP, N-(9,10-dioxo-9,10-dihydrophenanthren-2-yl)-2,2-dimethylpropionamide] | significantly inhibited | significant inhibitory effect was not shown |  |  |  |
| CC(=O)c1ccc(NC2=C(Cl)C(=O)c3ccccc3C2=O)cc1 [compound 211, 2-(4-acetylanilino)-3-chloronaphthoquinone] | significantly inhibited | significant inhibitory effect was not shown | strongly inhibited | significantly reduced | significantly reduced |
